The text below walks through data of ChEMBL document CHEMBL1201862, “PubChem BioAssay data set” (2004).

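Five compound concentrations were applied to cells in 96-well plates for 48 hours; endpoints were derived by simple linear interpolation of the resulting dose-response curve. GI50 = concentration required for 50% inhibition of growth.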 Calls of active or inactive are those of the source. Cut-off read from the data, not from the text of the source: active = GI50 up to about 1.1 µM and inactive = higher. Bounds are passed on as bounds.

Test systems include SK-OV-3; A549; HL-60; SR; HCT-116; SNB-19; 786-0; SN12C; OVCAR-4; ACHN; CCRF-CEM; TK-10; SF-295; SF-268; OVCAR-3; IGROV-1.
Holding throughout (experiment): DTP human tumour cell line panel, 48 h

For the molecule `CCCC(OCC)(OCC)OCC`, the GI50 (commonly the concentration at which growth is held to half of that of the control) with SK-OV-3 is > 100 µM (inactive); in the experiment on A549, > 100 µM (inactive); in the experiment on HL-60, > 100 µM (inactive); with SR, > 100 µM (inactive); with HCT-116, 27.5 µM (inactive); in the experiment on SNB-19, > 100 µM (inactive). The GI50 in the experiment with 786-0, in the experiment on SN12C, in the experiment on OVCAR-4, in the experiment on ACHN, in the experiment on CCRF-CEM and in the experiment on TK-10 was > 100 µM (inactive) each time. The GI50 with SF-295, with SF-268, with OVCAR-3 and with IGROV-1 was > 100 µM (inactive) each time.
`COC(=O)C(CC(=O)Nc1ccc(C)cc1)C(=O)C(=O)Nc1ccccc1C(C)C` (stereo not given): the GI50 in the experiment with SK-OV-3, with A549, with HL-60, in the experiment on SR, in the experiment with HCT-116 and in the experiment with SNB-19 was > 100 µM (inactive) throughout. Further, the GI50 with 786-0, in the experiment with SN12C, with OVCAR-4, in the experiment with ACHN, in the experiment on CCRF-CEM and with TK-10 was > 100 µM (inactive) each time. Besides, the GI50 in the experiment on SF-295, with SF-268, with OVCAR-3 and in the experiment with IGROV-1 was > 100 µM (inactive) each time.
With `CC1=C(C)C(=O)C2=C(OCCCO2)C1=O`, the GI50 was > 100 µM (inactive) in the experiment on SK-OV-3; 81.8 µM (inactive) in the experiment on A549; 3.61 µM (inactive) with HL-60; 21.9 µM (inactive) with SR; > 10 µM (inactive) in the experiment on HCT-116; > 100 µM (inactive) in the experiment with SNB-19. Also, the GI50 is 19.2 µM (inactive) with 786-0; > 10 µM (inactive) in the experiment with SN12C; > 10 µM (inactive) in the experiment with OVCAR-4; 18.4 µM (inactive) in the experiment with ACHN; 2.43 µM (inactive) in the experiment with CCRF-CEM; > 10 µM (inactive) in the experiment with TK-10. The GI50 in the experiment with SF-295 was 29.1 µM (inactive); in the experiment on SF-268 it was 18.3 µM (inactive); in the experiment with OVCAR-3 it was 18.1 µM (inactive); with IGROV-1 it was 18.2 µM (inactive).
Take `NC(=S)NNC(=O)/C(=C/c1ccc(/C=C(\NC(=O)c2ccccc2)C(=O)NNC(N)=S)cc1)NC(=O)c1ccccc1`: the GI50 with SK-OV-3 was > 100 µM (inactive); in the experiment on A549, > 100 µM (inactive); in the experiment on HL-60 it was 15.6 µM (inactive); in the experiment with SR, 26.1 µM (inactive); in the experiment with HCT-116 it was 75 µM (inactive); with SNB-19, > 100 µM (inactive). Further, the GI50 is > 100 µM (inactive) with 786-0; > 79.6 µM (inactive) in the experiment with SN12C; 97.5 µM (inactive) in the experiment with OVCAR-4; > 100 µM (inactive) in the experiment with ACHN; 34.3 µM (inactive) in the experiment on CCRF-CEM; > 100 µM (inactive) in the experiment with TK-10. Besides, the GI50 with SF-295 was > 100 µM (inactive); in the experiment on SF-268, > 100 µM (inactive); with OVCAR-3, > 100 µM (inactive); in the experiment on IGROV-1, > 79.3 µM (inactive).
As to `CC1=Nc2c(ccc3c2C(=O)c2ccccc2C3=O)NC(c2cccc3c2CCC3)C1` (stereo not given), the GI50 in the experiment on SK-OV-3 is > 31 µM (inactive); in the experiment with A549 it was > 100 µM (inactive); in the experiment on HL-60, 1.58 µM (inactive); in the experiment with SR it was 11 µM (inactive); with HCT-116, 66.2 µM (inactive); in the experiment with SNB-19, > 100 µM (inactive). Moreover, the GI50 with 786-0 was > 100 µM (inactive); with SN12C, > 100 µM (inactive); in the experiment on OVCAR-4 it was > 100 µM (inactive); in the experiment on ACHN, 25.3 µM (inactive); with CCRF-CEM, 0.612 µM (active); in the experiment on TK-10, > 100 µM (inactive). Also, the GI50 with SF-295 is > 100 µM (inactive); in the experiment with SF-268 it was > 100 µM (inactive); with OVCAR-3 it was > 90.4 µM (inactive); with IGROV-1, 10.3 µM (inactive).
